PubChem BioAssay AID463074 (Broad Institute, 2010)
Activity calls are given as the source filed them.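 Rule for the calls: active = AC50 no more than tenfold above the top dose tested, or full inhibition at every dose with a flat fit (cut at about 19 µM in these data); inconclusive = flat curve fit with inhibition between 30% and 70%, or poor fit; inactive = AC50 more than tenfold above the top dose tested.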

System: HMLE_sh_eGFP viability, CellTiter-Glo luminescence, 72 h
Assay: cytotoxicity in HMLE control line with eGFP shRNA, dose response, counter-screen for HMLE_sh_ECad selective toxicity project, cell-based, HMLE_sh_eGFP, luminescence (AID 463074);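 note: counterscreen control line to flag general toxicity for the HMLE_sh_ECad screen; potency for loss of viability as luminescence drops below DMSO wells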

Q: With `CC(C)(C)c1cc(C(=O)N/N=C/c2ccccc2O)n(-c2ccccc2)n1` as the compound, how does the AC50 read?
A: 4.41 µM

Q: For `CC1(C)CC[C@@]2(C(=O)O)C(C1)C1=CCC3[C@@]4(C)CC[C@H](O)C(C)(C)C4CC[C@@]3(C)[C@]1(C)C[C@H]2O` (some centres not stated), which AC50 is on record?
A: 7.84 µM

Q: `COc1ccccc1-c1cc(C(F)(F)F)nc(S(C)(=O)=O)n1` was tested. Which AC50 did it give?
A: 6.13 µM

Q: `Cc1nn(-c2ccccc2)c(N2CCCCC2)c1/C=N/O` was tested. Which AC50 did it give?
A: 1.69 µM

Q: `COc1ccc(CNCC(O)COc2ccc(C(C)(C)c3ccccc3)cc2)cc1` (configuration not stated) was tested. Which AC50 did it give?
A: 3.22 µM

Q: How did the AC50 turn out when `Clc1ccc(Cl)c(OCCCCN2CCNCC2)c1` was run?
A: 9.58 µM

Q: How did the AC50 turn out when `O=C(NCc1nc(-c2ccc(C(F)(F)F)cc2)no1)Nc1ccc(OC(F)(F)F)cc1` was run?
A: 3.12 µM

Q: Which AC50 does the source give for `CCN(CC(=O)NC1CCCCC1)S(=O)(=O)c1ccc(Cl)cc1` here?
A: > 19.5 µM (inactive)

Q: How did the AC50 turn out when `N#C/C(=C/c1ccc(O)c(O)c1)C(=O)NCc1ccc(Cl)cc1` was run?
A: 13.7 µM

Q: How did the AC50 turn out when `Oc1ccc(N=Nc2ccc(Br)cc2)c(O)c1` was run?
A: 17.3 µM

Q: How did the AC50 turn out when `COc1ccc(-c2sc3cc4c(cc3c2C#CC2(N)CCCCC2)OCO4)cc1` was run?
A: 1.91 µM

Q: `O=C(NNc1ccc(Cl)cc1)c1cccs1` was tested. Which AC50 did it give?
A: 1.58 µM

Q: For `CCCCCCCC/C=C\CCCCCCCC(=O)NCCc1ccc(O)c(O)c1`, which AC50 is on record?
A: 4.61 µM

Q: With `Cc1ccc(NC(=O)/C=C/c2ccc([N+](=O)[O-])s2)c(C)c1` as the compound, how does the AC50 read?
A: 2.3 µM

Q: Which AC50 does the source give for `Cc1sc(-n2c(C)cc(/C=C3\SC(=S)NC3=O)c2C)c(C#N)c1C` here?
A: 4.72 µM

Q: Which AC50 does the source give for `O=C(COc1ccccc1-c1ccccc1)N/N=C/c1cccc2ccccc12` here?
A: 0.608 µM

Q: Which AC50 does the source give for `Cc1ccc(NC(=O)C(=Cc2ccc(C(=O)O)cc2)C(=O)Nc2ccc(C)cc2C)c(C)c1` here?
A: 3.16 µM

Q: How did the AC50 turn out when `Cc1ccc(C=Nc2ccccc2C(N)=O)s1` was run?
A: 2.79 µM

Q: With `C=C(CC[C@@H](O)C(C)(C)O)[C@H]1CC[C@]2(C)[C@@H]1CCC1[C@@]3(C)CCC(=O)C(C)(C)C3CC[C@]12C` (some centres not stated) as the compound, how does the AC50 read?
A: 2.52 µM

Q: For `CN1CCN(c2ccccc2NC(=O)c2ccc(-c3ccc(Cl)cc3Cl)o2)CC1`, which AC50 is on record?
A: 6.57 µM

Q: How did the AC50 turn out when `CC(C)(C)[C@@H]1CCC(=O)N(CC[C@H](Sc2ccccc2)c2ccccc2)CC1` was run?
A: 3.95 µM

Q: With `C[C@H](CO)N1C[C@H](C)[C@H](CN(C)Cc2ccc(-c3ccccc3)cc2)Oc2ccc(NS(=O)(=O)c3ccccc3)cc2CC1=O` as the compound, how does the AC50 read?
A: 4.74 µM

Q: With `C=C(C)COc1ccc(-c2n[nH]c(C)c2-c2ccc(OC)c(OC)c2)c(O)c1` as the compound, how does the AC50 read?
A: 2.65 µM

Q: `COc1ccc2cc(C(=O)N/N=C/c3sc4ccccc4c3O)ccc2c1` was tested. Which AC50 did it give?
A: 1.8 µM

Q: For `Cc1ccsc1/C=N/NC(=O)c1cc(-c2ccncc2)nc2ccccc12`, which AC50 is on record?
A: 0.257 µM

Q: Which AC50 does the source give for `COc1ccc(CCN2C(=S)N(C)C(=O)C2CC(=O)Nc2ccc(OC)cc2)cc1` (configuration not stated) here?
A: 17.8 µM

Q: Which AC50 does the source give for `CSc1nc(C)cc(OCC(=O)N/N=C/c2ccccc2O)n1` here?
A: 11 µM

Q: `FC(F)(F)c1cc(-c2ccc(Cl)cc2)nc(NCc2cccnc2)n1` was tested. Which AC50 did it give?
A: 14 µM

Q: How did the AC50 turn out when `CCCNC(=O)c1onc(CSc2ccc(Cl)cc2)c1C(=O)NCCC(C)C` was run?
A: 2.99 µM

Q: How did the AC50 turn out when `OC(CN1CCN(c2ccccn2)CC1)Cn1c2ccc(Cl)cc2c2cc(Cl)ccc21` (configuration not stated) was run?
A: 6.78 µM

Q: How did the AC50 turn out when `CCN(CC)c1ccc(C(=O)OCc2cc(=O)oc3cc(O)ccc23)cc1` was run?
A: 16.2 µM

Q: How did the AC50 turn out when `CC(C)(C)c1nn(-c2ccccc2)c2[nH]c(=O)c(C=O)cc12` was run?
A: 8.18 µM

Q: Which AC50 does the source give for `CC(C)(C)c1ccc(Oc2ccc(N)cc2)cc1` here?
A: 13.5 µM

Q: How did the AC50 turn out when `CNc1oc(-c2ccc(Cl)cc2)nc1P(=O)(c1ccccc1)c1ccccc1` was run?
A: 9.43 µM

Q: `O=S(=O)(Nc1nc2ccccc2nc1N1CCN(c2ccccc2F)CC1)c1ccc(Cl)cc1` was tested. Which AC50 did it give?
A: 5.8 µM

Q: With `Cc1cc2ccccn2c1C(=O)c1ccc([N+](=O)[O-])o1` as the compound, how does the AC50 read?
A: 5.71 µM

Q: `CCCOc1ccc(C(=O)C(CN2CCCC2)c2ccccc2)cc1` (configuration not stated) was tested. Which AC50 did it give?
A: 3.3 µM

Q: `CCCOc1ccc(-c2nc(N3CCN(CC)CC3)c3ccccc3n2)cc1` was tested. Which AC50 did it give?
A: 6.44 µM

Q: For `O=S(=O)(Nc1ccc(O)c(Sc2nc3ccccc3s2)c1)c1cccc2ccccc12`, which AC50 is on record?
A: 5.83 µM

Q: `O=C(Nc1cccc(-c2csc(Nc3cccc(C(F)(F)F)c3)n2)c1)c1ccccc1` was tested. Which AC50 did it give?
A: 3.42 µM

Q: With `CCN(CC)CCCNC(=S)N1CCN(c2nc(-c3ccc(F)cc3)cs2)CC1` as the compound, how does the AC50 read?
A: 2.44 µM

Q: Which AC50 does the source give for `O=c1/c(=C\c2cccc(O)c2)sc2nc(-c3ccccc3)c(-c3ccccc3)n12` here?
A: 6.21 µM

Q: How did the AC50 turn out when `CCCc1cc(-c2nc(N)ncc2-c2ccc3c(c2)OCCCO3)c(O)cc1OC` was run?
A: 4.18 µM

Q: `O=C(Nc1ccc(Cl)cc1)N1CCCN(c2ccc(C(F)(F)F)cc2[N+](=O)[O-])CC1` was tested. Which AC50 did it give?
A: 6.57 µM

Q: How did the AC50 turn out when `CCCCCCSc1cccc(-c2nc3ccc(C)cn3c2NCc2ccccc2)c1` was run?
A: 3.37 µM

Q: `COc1cccc(-c2ccc(C#N)c(OC(=O)c3c(Cl)cccc3Cl)n2)c1` was tested. Which AC50 did it give?
A: 4.45 µM

Q: Which AC50 does the source give for `COc1ccc(Cn2c(SCc3ccccc3C)nc3cc(OC)c(OC)cc3c2=N)cc1` here?
A: 3.7 µM

Q: With `Cc1nc(-c2ccccc2)sc1C(=O)/C=C/c1ccc(Cl)cc1` as the compound, how does the AC50 read?
A: 7.62 µM

Q: With `O=C1CC(=Nc2ccccc2)NN1c1ccccc1` as the compound, how does the AC50 read?
A: 12.4 µM

Q: Which AC50 does the source give for `CCN1CCN(Cc2ccc(NC(=O)c3cc(NC(=O)c4cnn(-c5ccccc5)c4N)cc(OC)c3)cc2C(F)(F)F)CC1` here?
A: 6.76 µM

Q: Which AC50 does the source give for `O=C(Nc1ccn(Cc2ccccc2F)n1)c1ccc(COc2ccccc2Cl)cc1` here?
A: 3.52 µM

Q: `CCNC(=S)N/N=C/c1cn(Cc2ccc(F)cc2)c2ccccc12` was tested. Which AC50 did it give?
A: 10.9 µM
